Experimental data published in patent publication US9115148B2, “Spirocyclic derivatives as histone deacetylase inhibitors” (DAC S.R.L., priority 2008, dated 2015).

Legend:
HCT-116 cells = experiment: Cell growth, CellTiter-Glo Luminescent Cell Viability Assay, HCT-116; type: cell-based; details: Homo sapiens, HCT116 cells, 72 h incubation, read-out: IC50 antiproliferative assay HCT116
In short: (§1)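 Exponentially growing cells exposed 72 h to a range of inhibitor concentrations. Viability measured as cellular ATP by CellTiter-Glo luminescence (2 min lysis, read after 10 min RT); IC50 calculated and binned into ranges (≤1.0, 1.0–3.0, ≥3.0 μM).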

A549 cells = experiment: Cell growth, CellTiter-Glo Luminescent Cell Viability Assay, A549; type: cell-based; details: Homo sapiens, 72 h incubation, read-out: IC50 antiproliferative assay A549
In short: as §1

[1] = tested on: HDAC (nuclear fraction of Hela cells); experiment: Assay of enzyme inhibition of HDAC (BIOMOL Kit); type: biochemical; details: substrate 200 μM, 15 min at RT
In short: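 Enzyme source was HeLa nuclear fraction, incubated 15 min at RT with compound and an acetyl-lysine substrate at 200 μM. IC50 values were derived from concentration-response data.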

K562 cells = experiment: Cell growth, CellTiter-Glo Luminescent Cell Viability Assay, K562; type: cell-based; details: Homo sapiens, 72 h incubation, read-out: IC50 antiproliferative assay K562
In short: as §1

SMILES	IC50 (HCT-116 cells) [nM]	IC50 (A549 cells) [nM]	IC50 [1] [nM]	IC50 (K562 cells) [nM]
O=C(/C=C/c1ccc2c(c1)OC1(CCNCC1)CC2=O)NO [Example 8, (E)-3-{4-oxo-spiro[chromane-2,4′-piperidine]-7-yl}-N-hydroxy-acrylamide]	≥ 3000	≥ 3000	> 1000	≥ 3000
CCN1CCC2(CC1)CC(=O)c1cc(/C=C/C(=O)NO)ccc1O2 [Example 68, (E)-3-{1′-Ethyl-4-oxo-spiro[chromane-2,4′-piperidine]-6-yl}-N-hydroxy-acrylamide]	≤ 1000	≤ 1000	< 100	≤ 1000
CN1C(=O)c2cc(/C=C/C(=O)NO)ccc2OC12CCN(Cc1ccccc1)CC2 [Example 76, (E)-3-{1′-Benzyl-3,4-dihydro-3-methyl-4-oxo-spiro[2H-(1,3)-benzoxazine-2,4′-piperidin]-6-yl}-N-hydroxy-acrylamide]	≤ 1000	1000 to 3000	100 to 1000	1000 to 3000
CN1CCC2(CC1)CC(=O)c1cc(/C=C/C(=O)NO)ccc1O2 [Example 5, (E)-3-{1′-Methyl-4-oxo-spiro[chromane-2,4′-piperidine]-6-yl}-N-hydroxy-acrylamide]	≤ 1000	1000 to 3000	100 to 1000	≤ 1000
CN1CCC2(CC1)NC(=O)c1cc(/C=C/C(=O)NO)ccc1O2 [Example 73, (E)-3-{1′-Methyl-3,4-dihydro-4-oxo-spiro[2H-(1,3)-benzoxazine-2,4′-piperidin]-6-yl}-N-hydroxy-acrylamide]	≤ 1000	1000 to 3000	< 100	1000 to 3000
O=C(/C=C/c1ccc2c(c1)C(=O)CC1(CCN(Cc3ccccc3)CC1)O2)NO [Example 2, (E)-3-{1′-Benzyl-4-oxo-spiro[chromane-2,4′-piperidine]-6-yl}-N-hydroxy-acrylamide]	≤ 1000	≤ 1000	100 to 1000	≤ 1000
O=C(/C=C/c1ccc2c(c1)C=CC1(CCN(Cc3ccccc3)CC1)O2)NO [Example 15, (E)-3-{1′-Benzyl-spiro[chromene-2,4′-piperidine]-6-yl}-N-hydroxy-acrylamide]	≥ 3000	≥ 3000	> 1000	≥ 3000
CN1CCC2(CC1)Oc1ccc(/C=C/C(=O)NO)cc1C(=O)N2C [Example 78, (E)-3-{1′-Methyl-3,4-dihydro-3-methyl-4-oxo-spiro[2H-(1,3)-benzoxazine-2,4′-piperidin]-6-yl}-N-hydroxy-acrylamide]	1000 to 3000	≥ 3000	100 to 1000	1000 to 3000
CN1C(=O)c2cc(/C=C/C(=O)NO)ccc2OC12CCN(CCc1ccccc1)CC2 [Example 77, (E)-3-{1′-(2-Phenyl-ethyl)-3,4-dihydro-3-methyl-4-oxo-spiro[2H-(1,3)-benzoxazine-2,4′-piperidin]-6-yl}-N-hydroxy-acrylamide]	1000 to 3000	1000 to 3000	100 to 1000	≤ 1000
O=C(/C=C/c1ccc2c(c1)C(=O)CC1(CCN(Cc3ccccc3F)CC1)O2)NO [Example 34, (E)-3-{1′-(2-Fluoro-benzyl)-4-oxo-spiro[chromane-2,4′-piperidine]-6-yl}-N-hydroxy-acrylamide]	≤ 1000	1000 to 3000	100 to 1000	≤ 1000
CCOC(=O)N1CCC2(CC1)CC(=O)c1cc(/C=C/C(=O)NO)ccc1O2 [Example 6, (E)-3-{1′-Ethyloxycarbonyl-4-oxo-spiro[chromane-2,4′-piperidine]-6-yl}-N-hydroxy-acrylamide]	1000 to 3000	≥ 3000	100 to 1000	1000 to 3000
